Results from patent US20260015333A1, “COMPOUNDS AND METHODS FOR INHIBITION OF THE EVOLUTION OF […]” (priority 2022, published 2026).

Columns and labels:
HeLa cells = assay: Mammalian cell cytotoxicity (CellTox Green); format: cell-based; conditions: during the timeframe of the infection experiment
Description: FIGS. 9A-9B depict the cytotoxicity of ARM-1 against indicated mammalian cell lines. FIG. 9A depicts toxicity reported from original Calibr screen data against HEK293T and HepG2 cell lines. FIG. 9B depicts toxicity determined using Promega CellTox reagents following 8 hours of exposure of HeLa, Caco-2, and HEK293 cells to varying concentrations of ARM-1. Relative fluorescent units (RFUs) reported relative to solvent and no substrate controls.
Cytotoxicity of ARM-1 against HeLa, Caco-2, and HEK293 cells was determined using CellTox Green Cytotoxicity Assay (Promega) according to manufacturer instructions. ARM-1 was diluted in DMSO and applied to the culture such that final concentrations of DMSO were less than 0.05%. Reported toxicity is relative to a DMSO only control. Cells were incubated with ARM-1 for 24 hours prior to addition of reporter dye. Fluorescence was read on a BioTek Synergy Neo plate reader.

[1] = system: RpoB association with rDNA; assay: ChIP-qPCR of RpoB enrichment at rDNA; format: cell-based, S. typhimurium ST19; conditions: treated 2 generations
S. aureus = assay: Minimum inhibitory concentration of ARM-1 alone; format: cell-based; conditions: Staphylococcus aureus, constant for 196 hours of exposure
Description: (§1) FIGS. 4A-4C depict how ARM-1 inhibits the evolution of antibiotic resistance. FIG. 4A depicts the minimum inhibitory concentration of ARM-1 in E. coli and S. aureus. FIGS. 4B-4C depict the evolution of indicated species against (FIG. 4B) rifampicin and (FIG. 4C) trimethoprim in the presence of ARM-1. Heatmaps show median MIC over time. Concentrations are indicated to the right of each plot. Each strain and antibiotic is the result of at least 12 biological replicates. Concentration of ARM-1 used against L. monocytogenes, P. aeruginosa, and S. aureus is 100 μM. Concentration of ARM-1 used against S. typhimurium is 50 μM. Populations of bacteria are grown overnight in a series of increasing antibiotic concentrations, with or without ARM-1 present. The following day, the population from the highest tolerated concentration is re-challenged with higher concentrations of antibiotic. […]
(§2) Next, the effect of ARM-1 on the evolution of antibiotic resistance was examined. […] Using an assay previously developed, the impact of ARM-1 was assessed on resistance development across diverse pathogens and in response to multiple classes of antibiotics. […]
(§3) Evolution experiments were performed for the indicated strains. […] Optical densities were subsequently measured in an Epoch2 microplate spectrophotometer (BioTek). […]

E. coli = assay: Minimum inhibitory concentration of ARM-1 alone; format: cell-based; conditions: Escherichia coli, constant for 196 hours of exposure
Description: as §1, §2, §3

For Cc1cc(Br)ccc1-c1ccc(CNCCCN(C)C)o1 [ARM-1, N^1-((5-(4-bromo-2-methylphenyl)furan-2-yl)methyl)-N^3,N^3-dimethylpropane-1,3-diamine], the “cytotoxic effects on HeLa cells” value (HeLa cells) was “no cytotoxic effects”, the “RpoB association with rDNA” value ([1]; 5 mM ARM-1, WT cells) was “little change” and the “RpoB association with rDNA” value ([1]; 10 mM ARM-1, WT cells) was “dramatic decrease”. For the same molecule, the MIC (S. aureus) was 400 µM and the MIC (E. coli) was 400 µM.
